Measurements reported in US5443986A, “Enzymatic analysis using substrates that yield fluorescent precipitates” (Molecular Probes, Inc., priority 1993, dated 1995).

How the values were obtained:
[1] = Critical concentration (Mc) for precipitation of the enzymatic product; type: physicochemical; details: product of hydrolysis by excess alkaline phosphatase, 0.1M TRIS pH 10.3
Description: 2D) Critical concentration: Various concentrations of 2-(4'-methoxy-2'-phosphoryloxyphenyl)quinazolinone (3e) were reacted with 50 μL of excess alkaline phosphatase in 200 μL solution of 0.1M TRIS≥pH 10.3 containing 50 mM NaCl, 10 mM MgCl2 and 0.1 mM ZnCl2. The resulting precipitate and fluorescence were measured in a CytoFluor fluorescence plate reader (Millipore) with excitation at 360 nm, emission at 460 nm using sensitivity setting 3.
3). Determination of the critical concentration and pH dependence for the precipitation. The critical concentration (Mc, in units of mmoles) and the pH dependence (pKa) for precipitation are both important parameters for judging the precipitation properties of the enzymatic products obtained from the subject substrates. Below the critical concentration the product will not be detected as a fluorescent precipitate. Obviously these two parameters contribute to the precipitation in a correlated way. As a simple approach, one may define the critical concentration as the concentration necessary for the precipitation at a high pH where all of the phenol group is ionized. Similarly, acidification by lowering the pH results in precipitation at a concentration below the critical concentration that is obtained at high pH to an extent that is related to the pKa of the phenolic group. It is a characteristic of the preferred substrates that only the product precipitate is fluorescent. In this case the precipitate is quantitated by its fluorescence which results in a correlation of the fluorescence with the degree of precipitation.
To obtain the critical concentration for one product the phosphatase substrate (1e) (200 μL) in a 96-well plate is added to 0.1M TRIS, pH 10.3, containing 50 mM NaCl, 10 mM MgCl2 and 0.1 mM ZnCl2 to yield a final concentration of 0.1 to 10 mM. 50 μL of a 1 mg/mL solution of alkaline phosphatase is then added. The fluorescence development is complete after 5 minutes as measured in using a CytoFluor™ 2300 fluorescence plate reader (Millipore, Bedford, Mass.). A concentration showing appreciable fluorescence is determined as the critical concentration.

alkaline phosphatase [2] = target: T1, alkaline phosphatase (Bos taurus, UniProt P19111); assay: Fluorescence and light scattering on hydrolysis of the substrate (FIG. 2B, 2C); type: biochemical; parameters: mature GPI-type homodimer; details: 10 μg/mL alkaline phosphatase, 20 seconds
Description: 2B) Coexistence of fluorescence and precipitation: 5 mM 2-(4'-methoxy-2'-phosphoryloxyphenyl)quinazolinone (3e), in 0.1M TRIS pH 10.3 containing 50 mM NaCl, 10 mM MgCl2 and 0.1 mM ZnCl2, yields 210 units of fluorescence by action of 10 μg/mL alkaline phosphatase in 20 seconds. The fluorescence can be eliminated by addition of 0.6% Triton X-100 as a result of precipitate dissolution.
2C) Light-scattering increase as a result of precipitation: 2 mM 2-(4'-methoxy-2'-phosphoryloxyphenyl)quinazolinone (3e) scattering increases from 450 units to beyond the detection limit of 1000 units in 20 seconds by action of 10 μg/mL alkaline phosphatase, showing rapid formation of a precipitate. The enzymatic reaction was in 0.1M TRIS pH 10.3 containing 50 mM NaCl, 10 mM MgCl2 and 0.1 mM ZnCl2. The scattering measurement was made in a Perkin-Elmer LS-50 fluorometer with 5 nm slits and a coincident excitation and emission wavelength of 420 nm.

alkaline phosphatase [3] = target: T1, alkaline phosphatase; type: biochemical; parameters: mature GPI-type homodimer; details: 0.1M TRIS pH 10.3, 50 mM NaCl, 10 mM MgCl2, 0.1 mM ZnCl2; double-reciprocal plot
Description: As compared with other synthetic substrates, the fluorogenic precipitating substrates described in this invention normally have high enzymatic turnover rates and moderate affinities for the enzymes. Turnover rates of the substrates can be determined as in Example 10 and expressed as micromoles of product per minute per milligram protein (k2, in units of μmol·min^-1 ·mg^-1). The affinity of the substrate is determined by its dissociation constant, KM, in millimolar units. The enzymes can bind to and catalyze conversion of the soluble substrates into detectable reaction products that are apparently less soluble and will precipitate in aqueous solutions. The preferred detectable reaction products are fluorescent precipitates. The precipitation, however, and thus fluorescence, depends on the reaction product concentration or the initial substrate concentration used, as well as the ionization state of the product's phenol group. There are two parameters determining the precipitation, i.e. critical concentration (Mc) and pH dependence (pKa). A method for determination of these parameters is given in Example 11. Table 10 gives the relevant parameters for the enzymatic reaction and precipitation of quinazolinone-based alkaline phosphatase substrates.
4). Kinetic assay of some of the substrates. The specific activity (k2, in a unit of micromole per minute per milligram protein) and Michaelis constant (KM, in a unit of millimole) for hydrolysis of the substrates by the enzyme are listed in Table 10. All of the specific enzymatic reactions are made in the following buffers:
For alkaline phosphatase: 0.1M TRIS pH 10.3 containing 50 mM NaCl, 10 mM MgCl2 and 0.1 mM ZnCl2.
Because the kinetic assay involves variable amounts of precipitate with variable light scattering, measurement in the fluorometer as described above cannot be used here. Instead, a fluorescence plate reader with front-face measurement geometry such as the CytoFluor™ 2300 (Millipore, Bedford, Mass.) is preferred for quantitating the precipitate. The following protocol illustrates the kinetic assay.
4.1 ). In a 96-well plate, pipette 200 μL of a phosphatase substrate in the alkaline phosphatase reaction buffer with a final concentration of 2 to 6 mM, then add 50 μL 1 mg/mL alkaline phosphatase. […] Fluorescence of the precipitate is measured in the CytoFluor with appropriate sensitivity and excitation and emission settings as have been determined with the fluorometer. The fluorescence signal versus the amount of the precipitate is then established for each substrate.
4.2). […] Read the fluorescence of the resulting precipitate after 10 minutes reaction time and calculate the precipitate formation rate per minute by use of the determined fluorescence signal versus the amount of the precipitate. […]

[4] = target: Alkaline phosphatase conjugated goat anti-rabbit antibodies (Bos taurus, UniProt P19111); assay: Western blot immunodetection of subunit II of bovine heart cytochrome c oxidase with a phosphatase substrate; type: biochemical
Description: 1.1. Cytochrome c oxidase from the bovine heart mitochondrial inner membrane is highly purified according to the method of Capaldi and Hayashi, FEBS LETT 26, 4229-4238 (1972).
1.2. 50 μl of pure cytochrome c oxidase (20 mg/ml) is dissolved in a dissociation buffer to a final concentration of 1 mg/ml for electrophoresis.
1.3. An 18% acrylamide gel containing 6M urea, 0.1% SDS is used for gel electrophoresis according to a procedure published by Zhang, Lindorfer and Capaldi, BIOCHEMISTRY, 27, 1389-1394 (1988). 15 μg of protein is loaded onto each lane. The subunits of cytochrome c oxidase are separated during electrophoresis (there are 13 different subunits in bovine cytochrome c oxidase).
2.3. Protein samples in both B and C, resolved in SDS-gel electrophoresis, are semi-dry transferred onto a nitrocellulose membrane following a standard electrophoretic elution procedure published by Harlow and Lane, ANTIBODIES, A LABORATORY MANUAL, Cold Spring Harbor Lab (1988).
3.1. The nitrocellulose membrane is incubated with a polyclonal antibody that is specific for Subunit II of Cytochrome C oxidase (final antibody concentration: 20 μg/ml) at room temperature for 12 hours with agitation.
3.2. The membrane is incubated with the enzyme-labeled secondary antibody at room temperature for 1 hour with agitation. Alkaline phosphatase conjugated goat anti-rabbit antibodies are used with 1:3000 dilution in TTBS buffer containing 1% nonfat milk.
3.4. Membrane B is incubated in the phosphatase substrate BCIP/NBT (BioRad), while C is incubated with the fluorogenic, phosphatase substrate 1e.

[5] = target: β-glucuronidase from E. coli (Escherichia coli, UniProt P05804); assay: Detection of enzymatic activity in chromatographic fractions, glucuronidase peak; type: biochemical; details: 5 μL of 5 mg/mL substrate added to 25 μL fraction, pH 7.0
Description: (§1) β-galactosidase from E. coli (MW 540,000, approximately 1 mg) and β-glucuronidase from E. coli (MW 280,000, approximately 1 mg) are dissolved in 25 μL of 0.1M phosphate, pH 7,0 containing 0.11M 2-mercaptoethanol and 1 mM MgCl2 and chromatographed on a 1×35 cm column of BioGel A 1.5M equilibrated with the same buffer. Detection of the protein absorption at 280 nm is used to detect isolated protein fractions. […] To 25 μL aliquots of each fraction, is separately added 5 μL of a 5 mg/mL aqueous solution of 2-(5'-methoxy-2'-galactopyranosyl)phenyl-4-(3H)-quinazolone (3h) or 2-(2-O-β-D-glucopyranosiduronic acid)-4-(3H)-quinazolone (4h).

[6] = target: β-galactosidase from E. coli (Escherichia coli, UniProt P00722); assay: Detection of enzymatic activity in chromatographic fractions, galactosidase peak; type: biochemical; details: 5 μL of 5 mg/mL substrate added to 25 μL fraction, pH 7.0
Description: as §1

T1 sequence (P19111 20-506): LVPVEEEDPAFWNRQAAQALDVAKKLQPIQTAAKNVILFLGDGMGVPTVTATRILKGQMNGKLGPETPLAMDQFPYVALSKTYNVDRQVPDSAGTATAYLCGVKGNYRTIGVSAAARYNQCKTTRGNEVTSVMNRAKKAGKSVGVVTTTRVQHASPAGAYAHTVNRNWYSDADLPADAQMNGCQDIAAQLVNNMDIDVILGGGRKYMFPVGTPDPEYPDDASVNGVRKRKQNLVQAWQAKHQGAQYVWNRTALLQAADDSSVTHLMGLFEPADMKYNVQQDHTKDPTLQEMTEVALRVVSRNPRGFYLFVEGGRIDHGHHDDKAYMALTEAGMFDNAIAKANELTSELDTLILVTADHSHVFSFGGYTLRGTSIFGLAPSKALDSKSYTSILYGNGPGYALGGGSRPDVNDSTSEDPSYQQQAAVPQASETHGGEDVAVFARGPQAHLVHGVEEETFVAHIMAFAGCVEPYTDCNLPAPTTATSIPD
Alkaline phosphatase conjugated goat anti-rabbit antibodies, sequence (P19111 20-506 limits assumed): as the sequence (P19111 20-506) above
β-glucuronidase from E. coli, sequence (P05804 whole entry): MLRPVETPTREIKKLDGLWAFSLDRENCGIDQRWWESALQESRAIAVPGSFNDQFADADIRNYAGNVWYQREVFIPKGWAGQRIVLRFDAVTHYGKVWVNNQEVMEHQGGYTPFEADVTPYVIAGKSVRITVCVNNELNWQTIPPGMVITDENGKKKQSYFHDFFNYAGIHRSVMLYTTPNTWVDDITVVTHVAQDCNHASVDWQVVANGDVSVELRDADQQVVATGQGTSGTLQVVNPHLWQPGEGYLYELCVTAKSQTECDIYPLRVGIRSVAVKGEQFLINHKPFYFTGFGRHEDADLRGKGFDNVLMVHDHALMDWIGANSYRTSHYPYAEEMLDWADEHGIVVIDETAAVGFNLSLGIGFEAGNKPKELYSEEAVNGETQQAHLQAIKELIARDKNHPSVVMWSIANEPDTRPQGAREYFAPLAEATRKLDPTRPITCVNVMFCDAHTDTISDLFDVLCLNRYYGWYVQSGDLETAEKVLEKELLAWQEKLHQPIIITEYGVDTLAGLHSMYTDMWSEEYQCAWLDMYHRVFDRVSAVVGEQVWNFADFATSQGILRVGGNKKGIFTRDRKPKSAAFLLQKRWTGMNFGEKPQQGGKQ
β-galactosidase from E. coli, sequence (P00722 2-1024): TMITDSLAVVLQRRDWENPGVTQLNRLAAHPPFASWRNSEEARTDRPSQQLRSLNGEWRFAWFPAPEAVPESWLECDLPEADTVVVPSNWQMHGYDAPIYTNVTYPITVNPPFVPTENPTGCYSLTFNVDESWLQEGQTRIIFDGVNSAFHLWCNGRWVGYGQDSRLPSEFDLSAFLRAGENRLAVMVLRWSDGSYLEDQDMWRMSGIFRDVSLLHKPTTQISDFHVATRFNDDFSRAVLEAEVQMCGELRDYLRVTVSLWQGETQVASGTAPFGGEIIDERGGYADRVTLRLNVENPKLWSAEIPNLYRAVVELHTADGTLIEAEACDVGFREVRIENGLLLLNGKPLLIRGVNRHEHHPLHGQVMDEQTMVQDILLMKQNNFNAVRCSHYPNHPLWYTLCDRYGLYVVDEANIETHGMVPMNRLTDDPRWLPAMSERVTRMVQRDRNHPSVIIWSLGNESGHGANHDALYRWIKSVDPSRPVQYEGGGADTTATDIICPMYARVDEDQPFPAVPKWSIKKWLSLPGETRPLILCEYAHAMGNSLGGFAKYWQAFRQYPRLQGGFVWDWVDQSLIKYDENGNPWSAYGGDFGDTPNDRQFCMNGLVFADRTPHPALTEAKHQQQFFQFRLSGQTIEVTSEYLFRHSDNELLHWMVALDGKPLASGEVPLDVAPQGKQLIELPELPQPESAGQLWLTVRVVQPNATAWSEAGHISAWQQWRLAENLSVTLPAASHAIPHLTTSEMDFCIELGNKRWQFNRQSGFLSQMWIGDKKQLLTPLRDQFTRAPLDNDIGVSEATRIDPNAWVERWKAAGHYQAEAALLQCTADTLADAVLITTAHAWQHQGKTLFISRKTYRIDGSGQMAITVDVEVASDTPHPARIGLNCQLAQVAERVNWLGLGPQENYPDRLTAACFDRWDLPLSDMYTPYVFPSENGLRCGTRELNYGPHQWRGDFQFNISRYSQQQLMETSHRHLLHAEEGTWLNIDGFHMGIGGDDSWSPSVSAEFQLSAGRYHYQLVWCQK

Structure (SMILES) | Mc (critical concentration for precipitation) [1] [mM] | k2 (specific activity, turnover rate) (alkaline phosphatase [3]) [µmol/min/mg] | also measured
COc1ccc(OP(=O)(O)O)c(-c2nc3ccccc3c(=O)[nH]2)c1 [2e, 2-(5'-methoxyphenyl)] | 0.8 |  | 
O=c1[nH]c(-c2cc(Cl)ccc2OP(=O)(O)O)nc2ccccc12 [9e, 2-(5'-chlorophenyl)] | 0.4 |  | 
COc1ccc(-c2nc3ccccc3c(=O)[nH]2)c(OP(=O)(O)O)c1 [3e, 2-(4'-methoxy-2'-phosphoryloxyphenyl)quinazolinone] | 2.5 |  | light scattering after action of alkaline phosphatase (alkaline phosphatase [2]; 2 mM substrate, starts at 450 units, detection limit 1000 units, 420 nm): > 1000 units; fluorescence yielded by action of alkaline phosphatase (alkaline phosphatase [2]; 5 mM substrate, 0.1M TRIS pH 10.3): 210 units
O=c1[nH]c(-c2ccccc2OP(=O)(O)O)nc2ccccc12 [1e, 2-phenyl] | 1.5 | 188.81 | persistence of the stain on the membrane ([4]; membrane kept in a dry Petri dish): still fluorescent after 3 days; incubation time after which the immunoreactive band is visualized ([4]; nitrocellulose membrane): 30 min; staining of other transferred bands ([4]; nitrocellulose membrane): No other transferred bands are stained
COc1cc(OC)c(OP(=O)(O)O)c(-c2nc3ccccc3c(=O)[nH]2)c1 [2-(3',5'-dimethoxyphenyl)] | 0.3 | 215.60 | 
COc1ccc(O[C@@H]2O[C@H](CO)[C@H](O)[C@H](O)[C@H]2O)c(-c2nc3ccccc3c(=O)[nH]2)c1 [3h, 2-(5'-methoxy-2'-galactopyranosyl)phenyl-4-(3H)-quinazolone] |  |  | fluorescent precipitate formation in fractions of the second peak (β-glucuronidase) [5]: No cross reactivity is observed; fluorescent precipitate formation in fractions of the first peak (β-galactosidase) [6]: Visible yellow fluorescent precipitate formation occurs
O=C(O)[C@H]1O[C@@H](Oc2ccccc2-c2nc3ccccc3c(=O)[nH]2)[C@H](O)[C@@H](O)[C@@H]1O [4h, 2-(2-O-β-D-glucopyranosiduronic acid)-4-(3H)-quinazolone] |  |  | fluorescent precipitate formation in fractions of the second peak (β-glucuronidase) [5]: visible formation of a green fluorescent precipitate occurs; fluorescent precipitate formation in fractions of the first peak (β-galactosidase) [6]: No cross reactivity is observed
O=c1[nH]c(-c2ccccc2OP(=O)(O)O)nc2ccc([N+](=O)[O-])cc12 [6e, 2-phenyl-6-nitro] | 1.2 | 150.66 | 
COc1ccc(OP(=O)(O)O)c(-c2nc3ccc(Cl)cc3c(=O)[nH]2)c1 [5e, 2-(5'-methoxyphenyl)-6-chloro] | 1.2 |  | 
